Measured values taken from ChEMBL document CHEMBL5038640, “Natural Berberine-derived Azolyl Ethanols as New Structural Antibacterial Agents against Drug-Resistant Escherichia coli” (J Med Chem, 2022).
Converted amounts (≈) assume the structure as drawn. The source made the active and inactive calls. The rule behind the calls is not given here.

How the values were obtained:
Pseudomonas aeruginosa [1] = test: Antibacterial activity against Pseudomonas aeruginosa ATCC 27853 assessed as decrease in bacterial growth incubated for 18 hrs by broth microdilution method; type: functional
Staphylococcus aureus [2] = test: Antibacterial activity against Staphylococcus aureus assessed as decrease in bacterial growth incubated for 18 hrs by broth microdilution method; type: functional
Escherichia coli [3] = test: Induction of bacterial resistance in Escherichia coli assessed as fold increase in MIC measured after 16 days by resistance development assay; type: functional; details: time 16.0 day
Klebsiella pneumoniae = test: Antibacterial activity against Klebsiella pneumoniae assessed as decrease in bacterial growth incubated for 18 hrs by broth microdilution method; type: functional
Staphylococcus aureus [4] = test: Antibacterial activity against Staphylococcus aureus ATCC 25923 assessed as decrease in bacterial growth incubated for 18 hrs by broth microdilution method; type: functional
Escherichia coli [5] = test: Antibacterial activity against Escherichia coli assessed as decrease in bacterial growth incubated for 18 hrs by broth microdilution method; type: functional
Staphylococcus aureus [6] = test: Antibacterial activity against Staphylococcus aureus ATCC 29213 assessed as decrease in bacterial growth incubated for 18 hrs by broth microdilution method; type: functional
Pseudomonas aeruginosa [7] = test: Antibacterial activity against Pseudomonas aeruginosa assessed as decrease in bacterial growth incubated for 18 hrs by broth microdilution method; type: functional
Escherichia coli [8] = test: Antibacterial activity against Escherichia coli ATCC 25922 assessed as decrease in bacterial growth incubated for 18 hrs by broth microdilution method; type: functional
Enterococcus faecalis = test: Antibacterial activity against Enterococcus faecalis assessed as decrease in bacterial growth incubated for 18 hrs by broth microdilution method; type: functional
Acinetobacter baumannii = test: Antibacterial activity against Acinetobacter baumannii assessed as decrease in bacterial growth incubated for 18 hrs by broth microdilution method; type: functional
Staphylococcus aureus [9] = test: Antibacterial activity against methicillin-resistant Staphylococcus aureus N315 assessed as decrease in bacterial growth incubated for 18 hrs by broth microdilution method; type: functional
[10] = Hemolytic activity against human RBC assessed as 50% hemolysis measured upto 64 times of MIC after 1 to 8 hr; type: toxicity, cell-based; details: erythrocyte, time 1-8 hrs
[11] = Cytotoxicity against human PNT1A cells assessed as cell viability upto 0.100 mM incubated for 24 hrs by MTT assay; type: toxicity, cell-based; details: read-out: Activity
A549 = test: Cytotoxicity against human A549 cells assessed as cell viability upto 0.100 mM incubated for 24 hrs by MTT assay; type: functional, cell-based; details: dose mM <=0.100, time 24.0 hrs
Cell membrane [12] = test: Induction of cell membrane disruption in Escherichia coli assessed as increase in protein leakage upto 0.224 mM by Bradford assay; type: subcellular; details: dose mM <=0.224
DNA = test: Competitive binding affinity to Escherichia coli DNA assessed as DNA intercalation by AO staining based assay; type: nucleic-acid assay
Calf thymus DNA = test: Binding affinity to calf thymus DNA assessed as red shift in absorption spectra at pH 7.4 by UV-vis absorption spectroscopy; type: nucleic-acid assay; details: Bos taurus
Escherichia coli [13] = test: Biofilm disruption activity in Escherichia coli assessed as reduction in exo-polysaccharide incubated for 24 hrs by crystal violet staining based assay; type: functional, organism-based
Escherichia coli [14] = test: Biofilm disruption activity in Escherichia coli at MIC incubated for 24 hrs by crystal violet staining based assay; type: functional; details: dose 0.007 mM
Escherichia coli [15] = test: Induction of intracellular ROS production in Escherichia coli assessed as increase in ROS accumulation at 0.006 to 0.192 mM incubated for 6 hrs by DCFH-DA assay; type: functional, organism-based; details: dose 0.006-0.192 mM
Escherichia coli [16] = test: Biofilm disruption activity in Escherichia coli assessed as mass loss of biofilm upto 0.096 mM incubated for 24 hrs by crystal violet staining based assay; type: functional, organism-based; details: dose mM <=0.096, time 24.0 hrs
Cell membrane [17] = test: Induction of outer membrane permeabilization in Escherichia coli assessed as increase in fluorescence intensity at MIC incubated for 6 hrs by NPN-dye based fluorescence assay; type: subcellular
Escherichia coli [18] = test: Anti-bioflim activity against Escherichia coli assessed as inhibition of bioflim formation at MIC incubated for 24 hrs followed by compound washout by crystal violet staining based assay; type: functional
Cell membrane [19] = test: Induction of membrane disruption in Escherichia coli at 2 times of MIC incubated for 6 hrs by DAPI staining and propidium iodide staining based fluorescence assay; type: subcellular
[20] = Aqueous solubility of the compound in saline; type: physicochemical
Escherichia coli [21] = test: Induction of bacterial resistance in Escherichia coli assessed as change in MIC measured after 16 days by resistance development assay; type: functional; details: time 16.0 day
Escherichia coli [22] = test: Antibacterial activity against Escherichia coli assessed as reduction in metabolic activity in presence of resazurin measured after 6 hrs by alamar blue assay; type: functional, organism-based
Cell membrane [23] = test: Induction of Inner membrane permeabilization in Escherichia coli assessed as increase in fluorescence intensity at MIC incubated for 6 hrs by PI staining based assay; type: subcellular
[24] = Cytotoxicity against human FHC cells assessed as cell viability upto 0.100 mM incubated for 24 hrs by MTT assay; type: toxicity, cell-based; details: read-out: Activity
Cell membrane [25] = test: Induction of cell membrane disruption in Escherichia coli assessed as increase in protein leakage upto 0.192 mM by Bradford assay; type: subcellular; details: dose mM <=0.192
Cell membrane [26] = test: Induction of membrane depolarization in Escherichia coli at 0.006 to 0.096 mM incubated for 6 hrs by DiSC35 dye-based fluorescence assay; type: subcellular; details: dose 0.006-0.096 mM
Escherichia coli [27] = test: Bactericidal activity against Escherichia coli assessed as reduction in colony formation at 8 times MIC measured after upto 6 hrs by time kill assay; type: functional, organism-based; details: time hrs <=6
Escherichia coli [28] = test: Biofilm disruption activity in Escherichia coli assessed as mass loss of biofilm upto 0.112 mM incubated for 24 hrs by crystal violet staining based assay; type: functional, organism-based; details: dose mM <=0.112, time 24.0 hrs
Cell membrane [29] = test: Induction of membrane depolarization in Escherichia coli at 0.007 to 0.112 mM incubated for 6 hrs by DiSC35 dye-based fluorescence assay; type: subcellular; details: dose 0.007-0.112 mM
Escherichia coli [30] = test: Induction of intracellular ROS production in Escherichia coli assessed as increase in ROS accumulation at 0.007 to 0.224 mM incubated for 6 hrs by DCFH-DA assay; type: functional, organism-based; details: dose 0.007-0.224 mM

CCn1cc(C(=O)O)c(=O)c2cc(F)c(N3CCNCC3)cc21 [NORFLOXACIN]
MIC (Pseudomonas aeruginosa [1]): 200 µM (≈ 63.9 µg/mL)
MIC (Staphylococcus aureus [2]): 2 µM (≈ 0.639 µg/mL)
fold change (FC) (Escherichia coli [3]): 64
MIC (Klebsiella pneumoniae): 6 µM (≈ 1.92 µg/mL)
MIC (Staphylococcus aureus [4]): 13 µM (≈ 4.15 µg/mL)
MIC (Escherichia coli [5]): 13 µM (≈ 4.15 µg/mL)
MIC (Staphylococcus aureus [6]): 100 µM (≈ 31.9 µg/mL)
MIC (Pseudomonas aeruginosa [7]): 25 µM (≈ 7.98 µg/mL)
MIC (Escherichia coli [8]): 13 µM (≈ 4.15 µg/mL)
MIC (Enterococcus faecalis): 6 µM (≈ 1.92 µg/mL)
MIC (Acinetobacter baumannii): 6 µM (≈ 1.92 µg/mL)
MIC (Staphylococcus aureus [9]): 25 µM (≈ 7.98 µg/mL)

COc1ccc2cc3[n+](cc2c1OCC(O)CSc1nc2ccccc2s1)CCc1cc2c(cc1-3)OCO2.[Br-] (stereo not given)
MIC (Pseudomonas aeruginosa [1]): 51 µM
Activity [10]: Non-Toxic
MIC (Staphylococcus aureus [2]): 51 µM
viability at 24 h [11]: 70%
Activity (A549): inactive
Activity (Escherichia coli [3]): inactive
Activity (Cell membrane [12]): Active
MIC (Klebsiella pneumoniae): 13 µM
Activity (DNA): Active
Activity (Calf thymus DNA): Active
Activity (Escherichia coli [13]): Active
MIC (Staphylococcus aureus [4]): 13 µM
MIC (Escherichia coli [5]): 6 µM
Activity (Escherichia coli [14]): 15%
MIC (Staphylococcus aureus [6]): 51 µM
MIC (Pseudomonas aeruginosa [7]): 102 µM
Activity (Escherichia coli [15]): Active
MIC (Escherichia coli [8]): 51 µM
MIC (Enterococcus faecalis): 51 µM
Activity (Escherichia coli [16]): Dose-Dependent Effect
Activity (Cell membrane [17]): Active
inhibition (INH) (Escherichia coli [18]): 21.87%
Activity (Cell membrane [19]): Active
MIC (Acinetobacter baumannii): 26 µM
solubility [20]: 770 µM
Activity (Escherichia coli [21]): inactive
Activity (Escherichia coli [22]): Active
MIC (Staphylococcus aureus [9]): 6 µM
Activity (Cell membrane [23]): Active
viability at 24 h [24]: 70%
Activity (Cell membrane [25]): Active
Activity (Cell membrane [26]): Active
Activity (Escherichia coli [27]): Active

COc1ccc2cc3[n+](cc2c1OCC(O)Cn1c([N+](=O)[O-])cnc1C)CCc1cc2c(cc1-3)OCO2.[Br-] (stereo not given)
MIC (Pseudomonas aeruginosa [1]): 55 µM
Activity [10]: Non-Toxic
MIC (Staphylococcus aureus [2]): 109 µM
viability at 24 h [11]: 70%
Activity (A549): inactive
Activity (Escherichia coli [3]): inactive
Activity (Cell membrane [12]): Active
MIC (Klebsiella pneumoniae): 27 µM
Activity (DNA): Active
Activity (Calf thymus DNA): Active
Activity (Escherichia coli [13]): Active
MIC (Staphylococcus aureus [4]): 55 µM
MIC (Escherichia coli [5]): 7 µM
Activity (Escherichia coli [14]): 40%
MIC (Staphylococcus aureus [6]): 55 µM
MIC (Pseudomonas aeruginosa [7]): 55 µM
MIC (Escherichia coli [8]): 55 µM
MIC (Enterococcus faecalis): 14 µM
Activity (Cell membrane [17]): Active
inhibition (INH) (Escherichia coli [18]): 28.25%
Activity (Cell membrane [19]): Active
MIC (Acinetobacter baumannii): 14 µM
solubility [20]: 908 µM
Activity (Escherichia coli [28]): Dose-Dependent Effect
Activity (Escherichia coli [21]): inactive
Activity (Escherichia coli [22]): Active
MIC (Staphylococcus aureus [9]): 14 µM
Activity (Cell membrane [29]): Active
Activity (Cell membrane [23]): Active
viability at 24 h [24]: 70%
Activity (Escherichia coli [30]): Active
Activity (Cell membrane [25]): Active
Activity (Escherichia coli [27]): Active

COc1ccc2cc3[n+](cc2c1OCC(O)Cn1cc(C=O)c2ccccc21)CCc1cc2c(cc1-3)OCO2.[Br-] (stereo not given)
MIC (Pseudomonas aeruginosa [1]): 27 µM
MIC (Staphylococcus aureus [2]): 53 µM
MIC (Klebsiella pneumoniae): 106 µM
MIC (Staphylococcus aureus [4]): 53 µM
MIC (Escherichia coli [5]): 53 µM
MIC (Staphylococcus aureus [6]): 53 µM
MIC (Pseudomonas aeruginosa [7]): 106 µM
MIC (Escherichia coli [8]): 53 µM
MIC (Enterococcus faecalis): 53 µM
MIC (Acinetobacter baumannii): 106 µM
solubility [20]: 790 µM
MIC (Staphylococcus aureus [9]): 106 µM

COc1ccc2cc3[n+](cc2c1OCC(O)CN1CCOCC1)CCc1cc2c(cc1-3)OCO2.[Br-] (stereo not given)
MIC (Pseudomonas aeruginosa [1]): 469 µM
MIC (Staphylococcus aureus [2]): 469 µM
MIC (Klebsiella pneumoniae): 469 µM
MIC (Staphylococcus aureus [4]): 469 µM
MIC (Escherichia coli [5]): 235 µM
MIC (Staphylococcus aureus [6]): 235 µM
MIC (Pseudomonas aeruginosa [7]): 469 µM
MIC (Escherichia coli [8]): 235 µM
MIC (Enterococcus faecalis): 469 µM
MIC (Acinetobacter baumannii): 469 µM
solubility [20]: 2190 µM
MIC (Staphylococcus aureus [9]): 469 µM

COc1ccc2cc3[n+](cc2c1OCC(O)Cn1nnnc1C)CCc1cc2c(cc1-3)OCO2.[Br-] (stereo not given)
MIC (Pseudomonas aeruginosa [1]): 121 µM
MIC (Staphylococcus aureus [2]): 121 µM
MIC (Klebsiella pneumoniae): 121 µM
MIC (Staphylococcus aureus [4]): 61 µM
MIC (Escherichia coli [5]): 121 µM
MIC (Staphylococcus aureus [6]): 61 µM
MIC (Pseudomonas aeruginosa [7]): 121 µM
MIC (Escherichia coli [8]): 121 µM
MIC (Enterococcus faecalis): 121 µM
MIC (Acinetobacter baumannii): 121 µM
solubility [20]: 2150 µM
MIC (Staphylococcus aureus [9]): 121 µM

COc1ccc2cc3[n+](cc2c1OCC(O)CSc1nc[nH]n1)CCc1cc2c(cc1-3)OCO2.[Br-] (stereo not given)
MIC (Pseudomonas aeruginosa [1]): 114 µM
MIC (Staphylococcus aureus [2]): 114 µM
MIC (Klebsiella pneumoniae): 57 µM
MIC (Staphylococcus aureus [4]): 114 µM
MIC (Escherichia coli [5]): 57 µM
MIC (Staphylococcus aureus [6]): 114 µM
MIC (Pseudomonas aeruginosa [7]): 114 µM
MIC (Escherichia coli [8]): 114 µM
MIC (Enterococcus faecalis): 114 µM
MIC (Acinetobacter baumannii): 114 µM
solubility [20]: 801 µM
MIC (Staphylococcus aureus [9]): 57 µM

COc1ccc2cc3[n+](cc2c1OCC(O)Cn1cnc([N+](=O)[O-])c1)CCc1cc2c(cc1-3)OCO2.[Br-] (stereo not given)
MIC (Pseudomonas aeruginosa [1]): 56 µM
MIC (Staphylococcus aureus [2]): 112 µM
MIC (Klebsiella pneumoniae): 56 µM
MIC (Staphylococcus aureus [4]): 112 µM
MIC (Escherichia coli [5]): 28 µM
MIC (Staphylococcus aureus [6]): 56 µM
MIC (Pseudomonas aeruginosa [7]): 112 µM
MIC (Escherichia coli [8]): 112 µM
MIC (Enterococcus faecalis): 112 µM
MIC (Acinetobacter baumannii): 112 µM
solubility [20]: 936 µM
MIC (Staphylococcus aureus [9]): 56 µM

COc1ccc2cc3[n+](cc2c1OCC(O)Cn1ccnc1-c1ccccc1)CCc1cc2c(cc1-3)OCO2.[Br-] (stereo not given)
MIC (Pseudomonas aeruginosa [1]): 106 µM
MIC (Staphylococcus aureus [2]): 106 µM
MIC (Klebsiella pneumoniae): 53 µM
MIC (Staphylococcus aureus [4]): 53 µM
MIC (Escherichia coli [5]): 27 µM
MIC (Staphylococcus aureus [6]): 53 µM
MIC (Pseudomonas aeruginosa [7]): 106 µM
MIC (Escherichia coli [8]): 106 µM
MIC (Enterococcus faecalis): 106 µM
MIC (Acinetobacter baumannii): 27 µM
solubility [20]: 701 µM
MIC (Staphylococcus aureus [9]): 7 µM
